Laboratory results published in patent US20230080477A1, “PROCESS OF SYNTHESIS OF NOVEL CHROMIUM (III) COMPLEXES OF SCHIFF BASE LIGANDS AND THEIR USE THERE OF AS THERAPEUTIC AGENTS” (priority 2021, published 2023).

Columns and labels:
[1] = Eastmond et al., 2008; Katz & salem, 1993; cited from earlier work
[2] = DPPH free radical antioxidant activity assay; type: biochemical; details: dilution 1 ml, wavelength 517 nm; for Inhibition: DPPH assay
Protocol: Antioxidant activity of the synthesized Cr(III) Schiff base complexes was tested using the free radical compound 2,2-diphenyl-1-picrylhydrazyl(DPPH) (25,26). This compound has a violet color when dissolved in ethanol and a strong absorption maximum centered at around 515-520 nm. DPPH became colorless or pale yellow when neutralized. An aliquot of DPPH (0.3 ml) in ethanol ([…]) was added to ethanol(3 ml), followed by addition of Cr(III) complex dissolve in ethanol (0.5 ml)(total Volume 3.8 ml). A UV/visible spectrophotometer was used to monitor the color change at 517 nm after 100 minutes of reaction. A blank sample contained a mixture of the Cr(III) complex in ethanol (0.5 ml) and ethanol (3.3 ml) (Total Volume 3.8 ml) without any DPPH (no violet color). A control sample contained a solution of DPPH (0.3 ml) and ethanol (3.5 ml) (total volume 3.8 ml) without any Cr (III) complex (Violet color remains). The amount of scavenging activity (%) was determined by the method of Mensor et al. (27).
Finally, the % scavenging activities for Schiff base ligands and derived Cr(III) complexes were calculated by applying the formula
Scavenging activity=(Ac−At)/Ac×100%
Where Ac and At represent the absorbance of the control and test samples, respectively (Choudhary et al., 2011)^28

| SMILES | Acute toxicity range [1] [mg/kg] | Inhibition [2] | DPPH Equivalent Antioxidant activity [2] | Total Antioxidant activity [2] [%] |
| --- | --- | --- | --- | --- |
| [Cr+3] [Cr(III) ion] | 1.5 to 3.3 | – | – | – |
| Cc1ccc(NC(=O)CC(=O)NNc2cc[nH]c2)cc1 [Ligand 1] | – | 0.077 | 1.253 | 65 |
| CC/C=N\NC(=O)CC(=O)Nc1ccc(C)cc1 [Ligand 2, N-[4-methylphenyl)-3-oxo-3[(2Z)-2-propylidene hydrazinyl] propanamide] | – | 0.074 | 1.223 | 66 |
